Measured values taken from patent US12209087B2, “AKT1 modulators” (Alterome Therapeutics, Inc., priority 2022, dated 2025).
pIC50: −log10 of the molar value. Read-outs that look alike come from different tables or passages of the source.

Target: T1, full length AKT E17K (Homo sapiens, UniProt P31749, E17K)
T1 construct: host or cells: HEK-293 (ATCC CRL-1573)
Test: NanoBRET Target Engagement (TE) Assay
Format: cell-based
Details: read-out: AKT1 E17K IC50
Excerpt: The NanoBRET™ Target Engagement (TE) Intracellular Kinase Assays are based on the NanoBRET™ System (Promega Corporation), an energy transfer technique designed to measure molecular proximity in living cells. The NanoBRET™ TE Assays measure the apparent affinity of test compounds by competitive displacement of the NanoBRET™ tracer compound, which is a cell permeable molecule engineered to be reversibly bound to a NanoLuc® luciferase-kinase fusion expressed in cells. For compound screening, when a test compound binds to the selected kinase, the BRET signal is attenuated. […] All cells were evaluated for viability prior to transfection and optimization of the transfection was done prior to experimentation. […] Following transfection, cells were washed and resuspended in Opti-MEM. NanoBRET assays were performed in white, 384-well plates (Corning) at a density of […]. All example compounds were prepared as concentrated stock solutions in DMSO (Sigma-Aldrich). Compounds are dissolved in DMSO to make 10 mM stock solution. […] A Labcyte ECHO 550 compound dispenser was used to facilitate compound transfer directly to cells. Cells were equilibrated for 2 hr with energy transfer probes and example compound prior to BRET measurements. […] For target engagement analysis, the energy transfer probes were added to the cells at concentrations optimized for the target in question (AKT E17K). Following compound incubation, NanoBRET NanoGlo Substrate (Promega Cat #N157D) and Extracellular Nanoluc Inhibitor (Promega Cat #N235C) was added according to the manufacturer's recommended protocol, and luminescence was measured on Envision Reader (Perkin Elmer) Multimode Luminometer equipped with 450 nm BPfilter (donor) and 600 nm LPfilter (acceptor), using 0.5 s integration time. Milli-BRET units (mBU) are calculated by multiplying the raw BRET values by 1000. Apparent tracer affinity values (EC50) were determined using the sigmoidal dose-response (variable slope).
Competitive displacement data were then plotted and data were fit to determine the EC50 value for each example compound.

[1] = competitive displacement of tracer in cells
[2] = competitive tracer displacement in living cells

T1 sequence (P31749 whole entry E17K): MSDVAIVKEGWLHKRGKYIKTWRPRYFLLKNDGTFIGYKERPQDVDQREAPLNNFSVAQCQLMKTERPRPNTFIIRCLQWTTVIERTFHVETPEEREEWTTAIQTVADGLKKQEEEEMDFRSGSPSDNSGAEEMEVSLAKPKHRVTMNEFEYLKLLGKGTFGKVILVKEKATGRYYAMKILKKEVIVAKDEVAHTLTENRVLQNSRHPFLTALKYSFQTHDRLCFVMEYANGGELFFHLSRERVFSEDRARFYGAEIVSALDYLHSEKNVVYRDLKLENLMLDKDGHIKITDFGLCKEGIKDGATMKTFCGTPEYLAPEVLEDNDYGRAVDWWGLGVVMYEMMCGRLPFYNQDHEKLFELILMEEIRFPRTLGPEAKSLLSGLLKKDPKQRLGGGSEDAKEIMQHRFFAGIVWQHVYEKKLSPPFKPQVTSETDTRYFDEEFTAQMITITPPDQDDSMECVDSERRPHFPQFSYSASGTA

pIC50 [1]	pIC50 [2]	Structure (SMILES)
> 7.82		N#Cc1nccc(NC2CCN(Cc3ccc(-n4c(-c5cccnc5N)nc5ccc([C@@H]6CCOC6)nc54)cc3)CC2)n1 (single isomer, unassigned) [Example 506]
> 7.82		N#Cc1nccc(NC2CCN(Cc3ccc(-n4c(-c5cccnc5N)nc5ccc([C@H]6CCOC6)nc54)cc3)CC2)n1 (single isomer, unassigned) [Example 507]
	5.00 to 6.22	N#Cc1ccc(OC2CCN(Cc3ccc(-n4c(-c5cccnc5N)nc5cccnc54)cc3)CC2)nc1 [Example 1, 6-((1-(4-(2-(2-Aminopyridin-3-yl)-3H-imidazo[4,5-b]pyridin-3-yl)benzyl)piperidin-4-yl)oxy)nicotinonitrile]
	6.22 to 7.22	N#Cc1ccc(OC2CCN(Cc3ccc(-n4c(-c5cccnc5N)nc5ccc(-c6ccccc6)nc54)cc3)CC2)nc1 [Example 2, 6-((1-(4-(2-(2-Aminopyridin-3-yl)-5-phenyl-3H-imidazo[4,5-b]pyridin-3-yl)benzyl)piperidin-4-yl)oxy)nicotinonitrile]
	5.00 to 6.22	N#Cc1ccc(OC2CCN(Cc3ccc(-n4c(-c5cccnc5N)nc5cc(-c6ccccc6)cnc54)cc3)CC2)nc1 [Example 3, 6-((1-(4-(2-(2-aminopyridin-3-yl)-6-phenyl-3H-imidazo[4,5-b]pyridin-3-yl)benzyl)piperidin-4-yl)oxy)nicotinonitrile]
	5.00 to 6.22	N#Cc1cccc(OC2CCN(Cc3ccc(-n4c(-c5cccnc5N)nc5cccnc54)cc3)CC2)n1 [Example 4, 6-((1-(4-(2-(2-Aminopyridin-3-yl)-3H-imidazo[4,5-b]pyridin-3-yl)benzyl)piperidin-4-yl)oxy)picolinonitrile]
	5.00 to 6.22	N#Cc1ccnc(OC2CCN(Cc3ccc(-n4c(-c5cccnc5N)nc5cccnc54)cc3)CC2)c1 [Example 5, 2-((1-(4-(2-(2-aminopyridin-3-yl)-3H-imidazo[4,5-b]pyridin-3-yl)benzyl)piperidin-4-yl)oxy)isonicotinonitrile]
	5.00 to 6.22	N#Cc1cccnc1OC1CCN(Cc2ccc(-n3c(-c4cccnc4N)nc4cccnc43)cc2)CC1 [Example 6, 2-((1-(4-(2-(2-aminopyridin-3-yl)-3H-imidazo[4,5-b]pyridin-3-yl)benzyl)piperidin-4-yl)oxy)nicotinonitrile]
	6.22 to 7.22	N#Cc1cccc(OC2CCN(Cc3ccc(-n4c(-c5cccnc5N)nc5ccc(-c6ccccc6)nc54)cc3)CC2)n1 [Example 7, 6-((1-(4-(2-(2-Aminopyridin-3-yl)-5-phenyl-3H-imidazo[4,5-b]pyridin-3-yl)benzyl)piperidin-4-yl)oxy)picolinonitrile]
	5.00 to 6.22	N#Cc1ccnc(OC2CCN(Cc3ccc(-n4c(-c5cccnc5N)nc5ccc(-c6ccccc6)nc54)cc3)CC2)c1 [Example 8, 2-((1-(4-(2-(2-Aminopyridin-3-yl)-5-phenyl-3H-imidazo[4,5-b]pyridin-3-yl)benzyl)piperidin-4-yl)oxy)isonicotinonitrile]
	6.22 to 7.22	N#Cc1cccnc1OC1CCN(Cc2ccc(-n3c(-c4cccnc4N)nc4ccc(-c5ccccc5)nc43)cc2)CC1 [Example 9, 2-((1-(4-(2-(2-Aminopyridin-3-yl)-5-phenyl-3H-imidazo[4,5-b]pyridin-3-yl)benzyl)piperidin-4-yl)oxy)nicotinonitrile]
	5.00 to 6.22	N#Cc1cccc(OC2CCN(Cc3ccc(-n4c(-c5cccnc5N)nc5cc(-c6ccccc6)cnc54)cc3)CC2)n1 [Example 10, 6-((1-(4-(2-(2-Aminopyridin-3-yl)-6-phenyl-3H-imidazo[4,5-b]pyridin-3-yl)benzyl)piperidin-4-yl)oxy)picolinonitrile]
	5.00 to 6.22	N#Cc1ccnc(OC2CCN(Cc3ccc(-n4c(-c5cccnc5N)nc5cc(-c6ccccc6)cnc54)cc3)CC2)c1 [Example 11, 2-((1-(4-(2-(2-Aminopyridin-3-yl)-6-phenyl-3H-imidazo[4,5-b]pyridin-3-yl)benzyl)piperidin-4-yl)oxy)isonicotinonitrile]
